pEC50, pIC50: −log10 of the molar value.
Key:
[1] = target: Calmodulin-Dependent Phosphodiesterase (Ca^2+ PDE); assay: Calmodulin-Dependent Phosphodiesterase Inhibition (Ca^2+ PDE); assay type: biochemical, rat; conditions: [^3 H]-cGMP, 30° C.
Method: Phosphodiesterase (Ca^2+ PDE)Ca^2+ PDE was partially purified from the brain of rat by DEAE-Sepharose column chromatography.
Calmodulin was purified from the calf brain using a calmodulin inhibitor W-7 affinity column.
A reaction mixture contained 20 μl of 500 mM Tris-HCl (pH 8.0), 20 μl of 50 mM MgCl2, 20 μl of 2 mM CaCl2 (or 10 mM EGTA), 20 μl of 1 mg/ml bovine serum albumin, PDE, […] of calmodulin, test sample and distilled water to make total volume 200 μl. To the mixture was added 20 μl of 4 μM [^3 H]-cGMP (2.5 μCi/ml), the mixture was incubated at 30° C. for 15 minutes, and then heated in boiling water for 3 to 5 minutes to terminate the reaction, and cooled in ice-water bath. 20 μg of 5'-nucleotidase (Snake venum) was added to the mixture, and the mixture was again incubated at 30° C. for 10 minutes. After addition of about 2 ml of water, the sample was applied to a cation exchange resin column (Biorad AG.AG50W-X4 to adsorbe the [^3 H]-guanosine and additionally about 2 ml of washing water for the sample was added to the column. The column was washed with about 20 ml of water, and the adsorbed [^3 H]-guanosine was eluted with 3 ml of 3N NH4 OH, and the elute was directly received by a vial. After an addition of 10 ml of an emulsified scintillation solution (ACS-II, AMERSHAM) the radio activity was measured by a scintillation counter LS7500 (Beckmann). The enzyme activity in the presence of calmodulin was taken as […], and a concentration of a test compound in μM which provides a 50% inhibition was expressed as IC50.

[2] = test system: superior mesenteric artery (contracted by potassium chloride); assay: Vessel Smooth Muscle Relaxation Action (V.R.); assay type: cell-based, rabbit; conditions: Oryctolagus cuniculus; concentration relaxing KCl-contracted strain to 50%; cumulative administration; read-out: V.R. (ED50)
From the text: The specimen was suspended by loading a strain in Krebs-Henseleit solution through which an oxygen gas containing 5% carbon dioxide was bubbled. The specimen was contracted by adding potassium chloride to maintain a predetermined strain. Thereafter, a test compound was cumulatively administrated.

pIC50 [1] | pEC50 [2] | Structure (SMILES)
4.70 | 4.66 | CN(C(Cc1ccc(NS(C)(=O)=O)cc1)C(=O)N1CCN(c2ccccc2)CC1)S(=O)(=O)c1cccc2cnccc12 (stereo not shown) [Example 19, 1-[N-(5-Isoquinolinesulfonyl)-P-Methanesulfonylamino-N-Methylphenylalanyl]-4-Phenylpiperazine]
4.64 | 6.00 | CN(C(Cc1ccc(NS(=O)(=O)c2cccc3ccccc23)cc1)C(=O)N1CCN(c2ccccc2)CC1)S(=O)(=O)c1cccc2cnccc12 (stereo not shown) [Example 20, 1-[N-(5-isoquinolinesulfonyl)-N-methyl-p-(1-naphtharenesulfonylamino)phenylalanyl]-4-phenylpiperazine]
4.18 | 6.60 | CN(c1ccc(CC(C(=O)N2CCN(c3ccccc3)CC2)N(C)S(=O)(=O)c2cccc3cnccc23)cc1)S(=O)(=O)c1cccc2cnccc12 (stereo not shown) [Example 23, 1-{N-(5-Isoquinolinesulfonyl)-P-[N'-(5-Isoquinolinesulfonyl)-N'-Methylamino]-N-Methylphenylalanyl}-4-Phenylpiperazine]
4.20 | 5.08 | CN(c1ccc(CC(C(=O)N2CCN(c3ccccc3)CC2)N(C)S(=O)(=O)c2cccc3cnccc23)cc1)S(C)(=O)=O (stereo not shown) [Example 24, 1-[N-(5-isoquinolinesulfonyl)-p-(N'-methanesulfonyl-N'-methylamino) N-methylphenylalanyl]-4-phenylpiperazine]
4.15 | 6.26 | CN(c1ccc(CC(C(=O)N2CCN(c3ccccc3)CC2)N(C)S(=O)(=O)c2cccc3cnccc23)cc1)S(=O)(=O)c1cccc2ccccc12 (stereo not shown) [Example 25, 1-{N-(5-isoquinolinesulfonyl)-N-methyl-p-[N'-methyl-N'-(1-naphtharenesulfonyl)amino]phenylalanyl}-4-phenylpiperazine]
4.98 | 6.09 | CN(C(Cc1ccc(O)cc1)CN1CCN(c2ccccc2)CC1)S(=O)(=O)c1cccc2cnccc12 (stereo not shown) [Example 36, N-[1-(P-Hydroxybenzyl)-2-(4-Phenylpiperazinyl)Ethyl]-N-Methyl-5-Isoquinolinesulfonamide]
5.19 | 5.41 | O=S(=O)(NC(Cc1ccc(OS(=O)(=O)c2cccc3cnccc23)cc1)CN1CCN(c2ccc(F)cc2)CC1)c1cccc2cnccc12 (stereo not shown) [Example 48]
4.30 | 6.12 | CN(C(Cc1ccc(OS(=O)(=O)c2cccc3ccccc23)cc1)CN1CCN(c2ccccc2)CC1)S(=O)(=O)c1cccc2ccccc12 (stereo not drawn) [Example 57, N-methyl-N-{1-[p-(α-naphtharenesulfonyloxy) -benzyl]-2-(4-phenylpiperazinyl)ethyl}-α-naphtharenesulfonamide]
4.20 | 6.60 | CN(C(Cc1ccc(O)cc1)CN1CCN(c2ccccc2)CC1)S(=O)(=O)c1cccc2ccccc12 (stereo not drawn) [Example 58, N-[1-(p-hydroxybenzyl)-2-(4-phenylpiperazinyl)ethyl]-N-methyl-α-naphtharenesulfonamide]
4.89 | 5.62 | O=S(=O)(NC(Cc1ccc(OS(=O)(=O)c2cccc3cnccc23)cc1)CN1CCCN(c2ccccc2)CC1)c1cccc2cnccc12 (stereo not shown) [Example 80]
4.48 | 6.07 | O=S(=O)(NC(Cc1ccc(O)cc1)CN1CCCN(c2ccccc2)CC1)c1cccc2cnccc12 (stereo not shown) [Example 82, N-[1-(P-Hydroxybenzyl)-2-(4-Phenylhomopiperazinyl)Ethyl]-5-Isoquinolinesulfonamide]
4.62 | 6.41 | CN(C(Cc1ccc(O)cc1)CN1CCCN(c2ccccc2)CC1)S(=O)(=O)c1cccc2cnccc12 (stereo not shown) [Example 83, N-[1-(P-Hydroxybenzyl)-2-(4-Phenylhomopiperazinyl)Ethyl]-N-Methyl-5-Isoquinolinesulfonamide]
4.62 | 4.89 | O=S(=O)(NC(Cc1ccc(OS(=O)(=O)c2cccc3cnccc23)cc1)CN1CCC(OCc2ccc(Cl)c(Cl)c2)CC1)c1cccc2cnccc12 (stereo not shown) [Example 86]
5.72 | 5.77 | O=S(=O)(NC(Cc1ccc(O)cc1)CN1CCC(OCc2ccc(Cl)c(Cl)c2)CC1)c1cccc2cnccc12 (stereo not shown) [Example 87, N-{1-(p-hydroxybenzyl)-2-[4-(3,4-dichlorobenzyloxy)piperidino]ethyl}-5-isoquinolinesulfonamide]
4.85 | 5.37 | O=S(=O)(NC(Cc1ccc(OCc2ccccc2)cc1)CN1CCN(c2ccccc2)CC1)c1cccc2cnccc12 (stereo not shown) [Example 88, N-{1-[(4-benzyloxy)benzyl]-2-(4-phenylpiperazinyl)ethyl}-5-isoquinolinesulfonamide]
5.47 | 6.48 | CN(C(Cc1ccc(O)cc1)CN1CCC(OCc2ccc(Cl)c(Cl)c2)CC1)S(=O)(=O)c1cccc2cnccc12 (stereo not shown) [Example 90, N-{2-[4-(3,4-Dichlorobenzyloxy)Piperidino]-1-(P-Hydroxybenzyl)Ethyl}-N-Methyl-5-Isoquinolinesulfonamide]
5.00 | 5.96 | COc1ccc(CC(CN2CCC(OCc3ccc(Cl)c(Cl)c3)CC2)N(C)S(=O)(=O)c2cccc3cnccc23)cc1 (stereo not shown) [Example 91, N-{2-[4-(3,4-Dichlorobenzyloxy)Piperidine]-1-(P-Methoxybenzyl)Ethyl}-N-Methyl-5-Isoquinolinesulfonamide]
5.47 | 6.51 | CN(C(Cc1ccc(O)cc1)CN1CCC(c2ccccc2)CC1)S(=O)(=O)c1cccc2cnccc12 (stereo not shown) [Example 93, N-[1-(p-hydroxybenzyl)-2-(4-phenylpiperidino)ethyl]-N-methyl-5-isoquinolinesulfonamide]
4.21 | 5.55 | CN(C(Cc1ccc(OS(=O)(=O)c2cccc3cnccc23)cc1)CN1CCC(O)CC1)S(=O)(=O)c1cccc2cnccc12 (stereo not shown) [Example 99, N-{2-(4-Hydroxypiperidino)-1-[P-(5-Isoquinolinesulfonyloxy)Benzyl]Ethyl}-N-Methyl-5-Isoquinolinesulfonamide]
4.92 | 5.27 | O=S(=O)(c1cccc2cnccc12)N(Cc1ccc(Cl)c(Cl)c1)C(Cc1ccc(O)cc1)CN1CCC(O)CC1 (stereo not shown) [Example 105, N-3,4-Dichlorobenzyl-N-[1-(P-Hydroxybenzyl)-2-(4-Hydroxypiperidino)Ethyl]-5-Isoquinolinesulfonamide]
4.55 | 5.05 | Cc1ccc(CN(C(Cc2ccc(O)cc2)CN2CCC(O)CC2)S(=O)(=O)c2cccc3cnccc23)cc1 (stereo not shown) [Example 106, N-[1-(P-Hydroxybenzyl)-2-(4-Hydroxypiperidino)Ethyl]-N-P-Methylbenzyl-5-Isoquinolinesufonamide]
5.00 | 5.92 | O=C([C@H](Cc1ccc(OS(=O)(=O)c2cccc3cnccc23)cc1)NS(=O)(=O)c1cccc2cnccc12)N1CCN(c2ccccc2)CC1 [Example 108, 1-[N,O-Bis(5-Isoquinolinesulfonyl)Tyrosyl]-4-Phenylpiperazine]
5.89 | 6.23 | CN([C@@H](Cc1ccc(OS(=O)(=O)c2cccc3cnccc23)cc1)C(=O)N1CCN(c2ccccc2)CC1)S(=O)(=O)c1cccc2cnccc12 [Example 109, 1-[N,O-Bis(5-Isoquinolinesulfonyl)-N-Methyltyrosyl]-4-Phenylpiperazine]
5.03 | 5.42 | CN([C@@H](Cc1ccc(O)cc1)C(=O)N1CCN(c2ccccc2)CC1)S(=O)(=O)c1cccc2cnccc12 [Example 110, 1-[N-(5-Isoquinolinesulfonyl)-N-Methyltyrosyl]-4-Phenylpiperazine]
4.11 | 5.15 | O=C([C@H](Cc1ccc(O)cc1)NS(=O)(=O)c1cccc2cnccc12)N1CCN(c2ccccc2)CC1 [Example 111, 1-[N-(5-isoquinolinesulfonyl)tyrosyl]-4-phenylpiperazine]
4.29 | 4.96 | O=C(CCc1ccccc1)N1CCCN(CC(Cc2ccc(O)cc2)NS(=O)(=O)c2cccc3cnccc23)CC1 (stereo not shown) [Example 119, N-{1-(P-Hydroxybenzyl)-2-[4-(3-Phenylpropionyl)Homopiperazinyl]Ethyl}-5-Isoquinolinesulfonylamide]
5.96 | 5.17 | O=S(=O)(Nc1ccccc1NCC=Cc1ccc(Cl)cc1)c1cccc2cnccc12 [Example 142, N-[2-(4-Chlorocinnamylamino)Phenyl]-5-Isoquinolinesulfonamide]
4.82 | 6.09 | CN(c1ccccc1NCC=Cc1ccc(Cl)cc1)S(=O)(=O)c1cccc2cnccc12 [Example 143, N-[2-(4-Chlorocinnamylamino)Phenyl]-N-Methyl-5 -Isoquinolinesulfonamide]
6.00 | 5.74 | O=S(=O)(c1cccc2cnccc12)N1CCN(CC=Cc2ccc(Cl)cc2)c2ccccc21 [Example 144, 1-(4-Chlorocinnamyl)-4-(5-Isoquinolinesulfonyl)-1,2,3,4-Tetrahydroquinoxaline]

Source: patent publication US5245034A, “Compound having vessel smooth muscle relaxation activity” (Hidaka; Kiroyoshi, priority 1988, dated 1993)
